IC50 data for twelve compounds are collected here from ChEMBL document CHEMBL1134676, “Synthesis and activity of novel and selective I(Ks)-channel blockers” (J Med Chem, 2001).

Broadly, the IC50 is the concentration needed to halve the response being measured. A low value points to inhibition by little substance.

Structures are written as SMILES.

The target of one test is T1, Voltage-gated potassium channel, IKs; KCNQ1(Kv7.1)/KCNE1(MinK) (Homo sapiens, UniProt P15382+P51787). Briefly: Inhibition of human IKs-channel expressed in Xenopus oocytes,(Experiment 1). It counts as cell-based, Oocyte.
T1 sequence (P51787 whole entry): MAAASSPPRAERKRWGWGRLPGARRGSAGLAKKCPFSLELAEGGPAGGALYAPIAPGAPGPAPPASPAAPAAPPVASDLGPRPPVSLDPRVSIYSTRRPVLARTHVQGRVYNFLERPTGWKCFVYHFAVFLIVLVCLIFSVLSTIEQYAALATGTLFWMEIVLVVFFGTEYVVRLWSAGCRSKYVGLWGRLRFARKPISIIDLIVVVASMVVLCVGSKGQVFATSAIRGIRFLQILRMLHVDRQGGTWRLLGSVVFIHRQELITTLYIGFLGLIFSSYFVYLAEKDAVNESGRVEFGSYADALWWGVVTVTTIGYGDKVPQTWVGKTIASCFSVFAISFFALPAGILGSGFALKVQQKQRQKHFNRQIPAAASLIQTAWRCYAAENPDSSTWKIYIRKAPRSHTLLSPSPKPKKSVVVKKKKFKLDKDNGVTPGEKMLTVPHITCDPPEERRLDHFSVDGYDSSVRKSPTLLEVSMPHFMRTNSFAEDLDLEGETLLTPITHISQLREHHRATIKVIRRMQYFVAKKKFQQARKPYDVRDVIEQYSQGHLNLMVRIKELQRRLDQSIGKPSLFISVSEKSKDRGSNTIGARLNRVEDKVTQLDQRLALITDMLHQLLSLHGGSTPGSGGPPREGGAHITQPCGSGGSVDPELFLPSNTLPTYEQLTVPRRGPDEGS
`CCS(=O)(=O)N(C)[C@H]1c2cc(C#N)ccc2OC(C)(C)[C@@H]1O` showed a half-maximal inhibitory concentration (IC50) of 5000 nM.
Regarding `CCS(=O)(=O)N(C)[C@@H]1c2cc(C#N)ccc2OC(C)(C)[C@H]1O`, the IC50 came to 44500 nM.

A further test has as its target T1, Voltage-gated potassium channel, IKs; KCNQ1(Kv7.1)/KCNE1(MinK). Briefly: Inhibition of human IKs-channel expressed in Xenopus oocytes. The test is classed as cell-based, Oocyte.
The compound `CN(C1c2cc(OCc3ccccc3)ccc2OC(C)(C)C1O)S(C)(=O)=O` (configuration not stated) had an IC50 of 200 nM.
`CCS(=O)(=O)N(C)[C@H]1c2cc(OCc3ccccc3)ccc2OC(C)(C)[C@@H]1O` yielded an IC50 of 50 nM.
As to `CCS(=O)(=O)N(C)[C@@H]1c2cc(F)ccc2OC(C)(C)[C@H]1O`, the IC50 is 2200 nM.
The compound `CCS(=O)(=O)N(C)C1c2ccccc2OC(C)(C)C1O` (configuration not stated) registered a 50% inhibitory concentration (IC50) of 3100 nM.
Regarding `CCCCOc1ccc2c(c1)C(N(C)S(C)(=O)=O)C(O)C(C)(C)O2` (configuration not stated), the half-inhibitory concentration (IC50) was 250 nM.
The same measure, in the same setting: the same measure for `CCS(=O)(=O)N(C)C1c2cc(F)ccc2OC(C)(C)C1O` (configuration not stated): 1200 nM; for `CCS(=O)(=O)N(C)[C@@H]1c2cc(OCc3ccccc3)ccc2OC(C)(C)[C@H]1O`: 400 nM; for `CCCCS(=O)(=O)N(C)C1c2cc(C#N)ccc2OC(C)(C)C1O` (configuration not stated): 58000 nM.
`CN(C1c2cc(Cl)ccc2OC(C)(C)C1O)S(C)(=O)=O` (configuration not stated): the IC50 is 1100 nM.
Same read-out and setting: the result for `CCS(=O)(=O)N(C)C1c2cc(C#N)ccc2OC(C)(C)C1O` (configuration not stated) reads 6900 nM.
